System: 885724-159-R-J1-PDC complex spheroid viability
Experiment: Anticancer human tumor 885724-159-R-J1-PDC patient-derived pancreatic adenocarcinoma cell line growth inhibition [POLQ]
Conditions: for IC50: curve of first compound; for viability, T/C: stronger effect = lower value
How it was run: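 Patient-derived tumour cells were co-cultured with HUVEC and mesenchymal stem cells as multicellular spheroids at 37 °C. They were treated with POLQ inhibitors (novobiocin, ART-558, RP6685) alone or combined with other agents. Top concentrations were at or near clinical Cmax (otherwise 10 microM; SN-38 at 1 microM), decreasing in half-log steps.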

[1] = second compound 0.0316 µM, first compound 0.0316 µM
[2] = second compound 0.0316 µM, first compound 0.1 µM
[3] = second compound 0.0316 µM, first compound 0.316 µM
[4] = second compound 0.0316 µM, first compound 1 µM
[5] = second compound 0.0316 µM, first compound 3.16 µM
[6] = second compound 0.0316 µM, first compound 10 µM
[7] = second compound 0.1 µM, first compound 0.0316 µM
[8] = second compound 0.1 µM, first compound 0.1 µM
[9] = second compound 0.1 µM, first compound 0.316 µM
[10] = second compound 0.1 µM, first compound 1 µM
[11] = second compound 0.1 µM, first compound 3.16 µM
[12] = second compound 0.1 µM, first compound 10 µM
[13] = second compound 0.316 µM, first compound 0.0316 µM
[14] = second compound 0.316 µM, first compound 0.1 µM
[15] = second compound 0.316 µM, first compound 0.316 µM
[16] = second compound 0.316 µM, first compound 1 µM
[17] = second compound 0.316 µM, first compound 3.16 µM
[18] = second compound 0.316 µM, first compound 10 µM
[19] = second compound 1 µM, first compound 0.0316 µM
[20] = second compound 1 µM, first compound 0.1 µM
[21] = second compound 1 µM, first compound 0.316 µM
[22] = second compound 1 µM, first compound 1 µM
[23] = second compound 1 µM, first compound 3.16 µM
[24] = second compound 1 µM, first compound 10 µM
[25] = second compound 3.16 µM, first compound 0.0316 µM
[26] = second compound 3.16 µM, first compound 0.1 µM
[27] = second compound 3.16 µM, first compound 0.316 µM
[28] = second compound 3.16 µM, first compound 1 µM
[29] = second compound 3.16 µM, first compound 3.16 µM
[30] = second compound 3.16 µM, first compound 10 µM
[31] = second compound 10 µM, first compound 0.0316 µM
[32] = second compound 10 µM, first compound 0.1 µM
[33] = second compound 10 µM, first compound 0.316 µM
[34] = second compound 10 µM, first compound 1 µM
[35] = second compound 10 µM, first compound 3.16 µM
[36] = second compound 10 µM, first compound 10 µM
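Note: spheroids exposed to compounds for 7 days.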

C#Cc1c(F)ccc2cc(O)cc(-c3ncc4c(N5CC6CCC(C5)N6)nc(OCC56CCCN5CC(F)C6)nc4c3F)c12 (stereo not given) + COC1C(OC(N)=O)C(O)C(Oc2ccc3c(O)c(NC(=O)c4ccc(O)c(CC=C(C)C)c4)c(=O)oc3c2C)OC1(C)C
IC50 (second compound 0.0316 µM): 2750 nM
IC50 (second compound 0.1 µM): 2490 nM
IC50 (second compound 0.316 µM): 2380 nM
IC50 (second compound 1 µM): 2670 nM
IC50 (second compound 3.16 µM): 2580 nM
IC50 (second compound 10 µM): 2970 nM
viability, T/C [1]: 104%
viability, T/C [2]: 101%
viability, T/C [3]: 88.5%
viability, T/C [4]: 76.8%
viability, T/C [5]: 45.2%
viability, T/C [6]: 21.7%
viability, T/C [7]: 104%
viability, T/C [8]: 94.3%
viability, T/C [9]: 93%
viability, T/C [10]: 72.1%
viability, T/C [11]: 44%
viability, T/C [12]: 21.7%
viability, T/C [13]: 95.7%
viability, T/C [14]: 107%
viability, T/C [15]: 88.7%
viability, T/C [16]: 76.6%
viability, T/C [17]: 40.9%
viability, T/C [18]: 22.6%
viability, T/C [19]: 97.9%
viability, T/C [20]: 100%
viability, T/C [21]: 90%
viability, T/C [22]: 76.5%
viability, T/C [23]: 45.2%
viability, T/C [24]: 20.8%
viability, T/C [25]: 94.9%
viability, T/C [26]: 97.2%
viability, T/C [27]: 90.3%
viability, T/C [28]: 67.2%
viability, T/C [29]: 47.8%
viability, T/C [30]: 22.3%
viability, T/C [31]: 99.4%
viability, T/C [32]: 92.6%
viability, T/C [33]: 95.2%
viability, T/C [34]: 73.9%
viability, T/C [35]: 49.4%
viability, T/C [36]: 21.9%

CC1COCCN1c1cc(C2(O)CC3CCC(C2)O3)c2cnn(-c3ccn[nH]3)c2n1 (stereo not given) + COC1C(OC(N)=O)C(O)C(Oc2ccc3c(O)c(NC(=O)c4ccc(O)c(CC=C(C)C)c4)c(=O)oc3c2C)OC1(C)C
IC50 (second compound 0.0316 µM): 139 nM
IC50 (second compound 0.1 µM): 150 nM
IC50 (second compound 0.316 µM): 98.2 nM
IC50 (second compound 1 µM): 139 nM
IC50 (second compound 3.16 µM): 96 nM
IC50 (second compound 10 µM): 102 nM
viability, T/C [1]: 74.7%
viability, T/C [2]: 49.8%
viability, T/C [3]: 38.8%
viability, T/C [4]: 41.8%
viability, T/C [5]: 31.5%
viability, T/C [6]: 23.2%
viability, T/C [7]: 73.3%
viability, T/C [8]: 51.4%
viability, T/C [9]: 40%
viability, T/C [10]: 41.4%
viability, T/C [11]: 31.9%
viability, T/C [12]: 24.7%
viability, T/C [13]: 63.1%
viability, T/C [14]: 50.4%
viability, T/C [15]: 39%
viability, T/C [16]: 34.8%
viability, T/C [17]: 32.5%
viability, T/C [18]: 28.6%
viability, T/C [19]: 75.1%
viability, T/C [20]: 52%
viability, T/C [21]: 39.7%
viability, T/C [22]: 38.1%
viability, T/C [23]: 31.2%
viability, T/C [24]: 25.4%
viability, T/C [25]: 68.1%
viability, T/C [26]: 44.8%
viability, T/C [27]: 42.5%
viability, T/C [28]: 35.8%
viability, T/C [29]: 31.8%
viability, T/C [30]: 26.4%
viability, T/C [31]: 61.1%
viability, T/C [32]: 50.5%
viability, T/C [33]: 40.8%
viability, T/C [34]: 34.5%
viability, T/C [35]: 34.9%
viability, T/C [36]: 26.3%

CCc1cc2c(N3CCc4c(cc(Cn5ccnc5)cc4-c4cn(C)nc4C(F)(F)F)C3=O)cc(C)nc2c(OC)n1 + COC1C(OC(N)=O)C(O)C(Oc2ccc3c(O)c(NC(=O)c4ccc(O)c(CC=C(C)C)c4)c(=O)oc3c2C)OC1(C)C
IC50 (second compound 0.0316 µM): > 10000 nM
IC50 (second compound 0.1 µM): > 10000 nM
IC50 (second compound 0.316 µM): > 10000 nM
IC50 (second compound 1 µM): > 10000 nM
IC50 (second compound 3.16 µM): > 10000 nM
IC50 (second compound 10 µM): > 10000 nM
viability, T/C [1]: 87.4%
viability, T/C [2]: 79.7%
viability, T/C [3]: 75.3%
viability, T/C [4]: 68.9%
viability, T/C [5]: 84.7%
viability, T/C [6]: 66.2%
viability, T/C [7]: 89%
viability, T/C [8]: 78.6%
viability, T/C [9]: 77%
viability, T/C [10]: 77.1%
viability, T/C [11]: 69.7%
viability, T/C [12]: 70.4%
viability, T/C [13]: 88.7%
viability, T/C [14]: 71.8%
viability, T/C [15]: 90.4%
viability, T/C [16]: 75.4%
viability, T/C [17]: 79.2%
viability, T/C [18]: 67.6%
viability, T/C [19]: 80%
viability, T/C [20]: 73.5%
viability, T/C [21]: 79.9%
viability, T/C [22]: 82.5%
viability, T/C [23]: 74.5%
viability, T/C [24]: 71.9%
viability, T/C [25]: 80.3%
viability, T/C [26]: 72.9%
viability, T/C [27]: 82.6%
viability, T/C [28]: 76.7%
viability, T/C [29]: 80.1%
viability, T/C [30]: 75.2%
viability, T/C [31]: 78.4%
viability, T/C [32]: 80.9%
viability, T/C [33]: 77.2%
viability, T/C [34]: 75.1%
viability, T/C [35]: 75.9%
viability, T/C [36]: 72%

COc1cc2cc(C(=O)CCC(=O)O)sc2cc1OC + COC1C(OC(N)=O)C(O)C(Oc2ccc3c(O)c(NC(=O)c4ccc(O)c(CC=C(C)C)c4)c(=O)oc3c2C)OC1(C)C
IC50 (second compound 0.0316 µM): > 10000 nM
IC50 (second compound 0.1 µM): > 10000 nM
IC50 (second compound 0.316 µM): > 10000 nM
IC50 (second compound 1 µM): > 10000 nM
IC50 (second compound 3.16 µM): > 10000 nM
IC50 (second compound 10 µM): > 10000 nM
viability, T/C [1]: 96.4%
viability, T/C [2]: 97.6%
viability, T/C [3]: 100%
viability, T/C [4]: 93.6%
viability, T/C [5]: 96.8%
viability, T/C [6]: 86.2%
viability, T/C [7]: 100%
viability, T/C [8]: 96.3%
viability, T/C [9]: 102%
viability, T/C [10]: 109%
viability, T/C [11]: 109%
viability, T/C [12]: 86.6%
viability, T/C [13]: 101%
viability, T/C [14]: 101%
viability, T/C [15]: 97.2%
viability, T/C [16]: 103%
viability, T/C [17]: 113%
viability, T/C [18]: 81%
viability, T/C [19]: 109%
viability, T/C [20]: 92.5%
viability, T/C [21]: 95.6%
viability, T/C [22]: 96%
viability, T/C [23]: 104%
viability, T/C [24]: 76.2%
viability, T/C [25]: 100%
viability, T/C [26]: 96.6%
viability, T/C [27]: 95.9%
viability, T/C [28]: 101%
viability, T/C [29]: 113%
viability, T/C [30]: 79.8%
viability, T/C [31]: 96.8%
viability, T/C [32]: 105%
viability, T/C [33]: 111%
viability, T/C [34]: 93.4%
viability, T/C [35]: 87.5%
viability, T/C [36]: 83.4%

O=C(Nc1ccc(O)c(NS(=O)(=O)c2ccc(F)cc2)c1)c1ccc(-c2ccccc2)cc1 + COC1C(OC(N)=O)C(O)C(Oc2ccc3c(O)c(NC(=O)c4ccc(O)c(CC=C(C)C)c4)c(=O)oc3c2C)OC1(C)C
IC50 (second compound 0.0316 µM): > 10000 nM
IC50 (second compound 0.1 µM): > 10000 nM
IC50 (second compound 0.316 µM): > 10000 nM
IC50 (second compound 1 µM): > 10000 nM
IC50 (second compound 3.16 µM): > 10000 nM
IC50 (second compound 10 µM): > 10000 nM
viability, T/C [1]: 90.9%
viability, T/C [2]: 91.9%
viability, T/C [3]: 92.7%
viability, T/C [4]: 102%
viability, T/C [5]: 98.6%
viability, T/C [6]: 72.9%
viability, T/C [7]: 104%
viability, T/C [8]: 96.7%
viability, T/C [9]: 98.1%
viability, T/C [10]: 104%
viability, T/C [11]: 109%
viability, T/C [12]: 72.7%
viability, T/C [13]: 105%
viability, T/C [14]: 95.6%
viability, T/C [15]: 90%
viability, T/C [16]: 107%
viability, T/C [17]: 106%
viability, T/C [18]: 87.3%
viability, T/C [19]: 107%
viability, T/C [20]: 96%
viability, T/C [21]: 95%
viability, T/C [22]: 100%
viability, T/C [23]: 102%
viability, T/C [24]: 71.4%
viability, T/C [25]: 96.6%
viability, T/C [26]: 92%
viability, T/C [27]: 95.1%
viability, T/C [28]: 94.1%
viability, T/C [29]: 101%
viability, T/C [30]: 84.1%
viability, T/C [31]: 94.8%
viability, T/C [32]: 97.3%
viability, T/C [33]: 94.6%
viability, T/C [34]: 97.1%
viability, T/C [35]: 108%
viability, T/C [36]: 75.8%

Source: PubChem BioAssay AID1963832 (Molecular Pharmacology Branch, DTP, NCI, 2024)
